Test results taken from patent publication US20240325398A1, “COMBINATION THERAPIES” (Infinity Pharmaceuticals, Inc., priority 2014, published 2024).

What was measured:
Test in all cases: Combination study, ATPLite 72 h, dose matrix (Synergy Score, CI50)
TMD8 = conditions: for CI50 growth inhibition / CI50 inhibition / Synergy Score growth inhibition / Synergy Score inhibition: TMD8
Procedure: (§1) Cells are thawed from a liquid nitrogen preserved state. Once cells have been expanded and divide at their expected doubling times, screening begins. Cells are seeded in growth media in either black 1536-well or 384-well tissue culture treated plates. Cells are then equilibrated in assay plates via centrifugation and placed in incubators attached to the Dosing Modules at 37° C. for 24 hours before treatment. […] These Tzero (To) plates are read using ultra-sensitive luminescence on Envision plate readers (Perkin Elmer). Treated assay plates are incubated with compound for 72 hours. After 72 hours, plates are developed for endpoint analysis using ATPLite. All data points are collected via automated processes, quality controlled and analyzed using Zalicus software.
(§2) where T is treated cell count and V is untreated (vehicle) cell count (at 72 hours). I ranges from 0% (when T=V) to 100% (when T=0). […] The measure of effect in the experiment can be the inhibition of cellular response relative to the untreated level (vehicle alone). […] The inhibition ranges from 0% at the untreated level to 100% when T=0. Inhibition levels are negative for agents that actually increase levels. Other effect measures, such as an activity ratio r=T/V may be more appropriate for some assays. When activity ratios (e.g, fold increase over stimulated control) are being used, the effect can be measured using an induction 1=ln(T/V). With this definition, all effect expressions are the same as for inhibition.
(§3) Growth Inhibition (GI) is used as a measure of cell viability. […] A GI reading of 100% represents complete growth inhibition—T72 compound-treated and T0 vehicle signals are matched. […] A GI reading of 200% represents complete death of all cells in the culture well. Compounds reaching an activity plateau of GI 200% are considered cytotoxic. GI is calculated by applying the following test and equation:
(§4) Combination analysis data were collected in a 6×6 dose matrix. Synergy is calculated by comparing a combination's response to those of its single compound, against the drug-with-itself dose-additive reference model. Deviations from dose additivity may be assessed visually on an isobologram or numerically with a Combination Index (CI). […] Additive effect is CI=1.0. […] Antagonistic effect is CI>1.0.
The isobologram was drawn by identifying the locus of concentrations that correspond to crossing the indicated inhibition level. This is done by finding the crossing point for each single agent concentration in a dose matrix across the concentrations of the other single agent. Practically, each vertical concentration CY is held fixed while a bisection algorithm is used to identify the horizontal concentration CX in combination with that vertical dose that gives the chosen effect level in the response surface Z(CX,CY). These concentrations are then connected by linear interpolation to generate the isobologram display. For synergistic interactions, the isobologram contour fall below the additivity threshold and approaches the origin, and an antagonistic interaction would lie above the additivity threshold. The error bars represent the uncertainty arising from the individual data points used to generate the isobologram. The uncertainty for each crossing point is estimated from the response errors using bisection to find the concentrations where Z−αZ(CX,CY) and Z+σZ(CX,CY) cross Icut, where αZ is the standard deviation of the residual error on the effect scale.
(§5) To measure combination effects in excess of Loewe additivity, a scalar measure to characterize the strength of synergistic interaction termed the Synergy Score is devised. The Synergy Score is calculated as:
The fractional inhibition for each component agent and combination point in the matrix is calculated relative to the median of all vehicle-treated control wells.

Farage = conditions: combination with Compound 1
OCI-Ly3 = system: OCI-Ly3
Procedure: as §1, §2, §3, §4, §5
(§6) The fractional inhibition for each component agent and combination point in the matrix is calculated relative to the median of all vehicle-treated control wells. The Synergy Score equation integrates the experimentally-observed activity volume at each point in the matrix in excess of a model surface numerically derived from the activity of the component agents using the Loewe model for additivity. Additional terms in the Synergy Score equation (above) are used to normalize for various dilution factors used for individual agents and to allow for comparison of synergy scores across an entire experiment. The inclusion of positive inhibition gating or an Idata multiplier removes noise near the zero effect level, and biases results for synergistic interactions at that occur at high activity levels.
Loewe Volume (Loewe Vol) is used to assess the overall magnitude of the combination interaction in excess of the Loewe additivity model. Loewe Volume is particularly useful when distinguishing synergistic increases in a phenotypic activity (positive Loewe Volume) versus synergistic antagonisms (negative Loewe Volume). […] This model defines additivity as a non-synergistic combination interaction where the combination dose matrix surface should be indistinguishable from either drug crossed with itself. The calculation for Loewe additivity is:

HBL-1 = system: HBL-1
U-2932 = system: U-2932
WSU-NHL = conditions: combination with Compound 1, 72 h
KARPAS-422 = conditions: combination with Compound 1, 72 h
RL = conditions: combination with Compound 1, 72 h
Procedure: as §1, §2, §3, §4, §5, §6
(§7) Loewe Volume (Loewe Vol) is used to assess the overall magnitude of the combination interaction in excess of the Loewe additivity model. Loewe Volume is particularly useful when distinguishing synergistic increases in a phenotypic activity (positive Loewe Volume) versus synergistic antagonisms (negative Loewe Volume). […] This model defines additivity as a non-synergistic combination interaction where the combination dose matrix surface should be indistinguishable from either drug crossed with itself.

OMP-2 = conditions: combination with Compound 1; OPM-2
KARPAS-299 = conditions: combination with Compound 1
Procedure: as §1, §2, §3, §4, §5, §6, §7

NCI-H929 = conditions: combination with Compound 1
SU-DHL-4-epst = conditions: combination with Compound 1, 72 h
Mino = conditions: combination with Compound 1
Procedure: as §1, §2, §3, §4, §5, §6, §7

OCI-Ly7 = conditions: combination with Compound 1, 72 h
SU-DHL-10-epst = conditions: combination with Compound 1, 72 h
GRANTA-519 = conditions: combination with Compound 1
RPMI-8226 = conditions: combination with Compound 1
Procedure: as §1, §2, §3, §4, §5, §6, §7

HH = assay type: cell-based; conditions: combination with Compound 1
Procedure: The method is described as follows.
Additive effect is CI=1.0. […] Antagonistic effect is CI>1.0.
The Synergy Score is calculated as: […]

DOHH-2 = conditions: combination with Compound 1, 72 h
Jeko-1 = conditions: combination with Compound 1
[1] = combination with CAL-101, OCT-Ly3, Example 2
[2] = combination with Cmpd 1, OCT-Ly3, Example 2
[3] = combination with CAL-101, Example 2
[4] = combination with Cmpd 1, Example 2
[5] = combination with Compound 1, OCI-Ly3, 72 h
[6] = combination with Compound 1, 72 h

SMILES: COc1ccc(-c2ccc3c(N4CCOC[C@@H]4C)nc(N4CCOC[C@@H]4C)nc3n2)cc1CO [AZD8055, (5-{2,4-bis[(3S)-3-methylmorpholin-4-yl]pyrido[2,3-d]pyrimidin-7-yl}-2-methoxyphenyl)methanol]
- effect of the combination (isobologram) (TMD8; combination with Compound 1, TMD8 DLBCL cell line, FIG. 1-3): synergistic effect
- effect of the combination (isobologram) (Farage; Farage DLBCL cell line, FIG. 4-5): synergistic effect

SMILES: C=CC(=O)N1CCC[C@@H](n2nc(-c3ccc(Oc4ccccc4)cc3)c3c(N)ncnc32)C1 [PCI-32765]
- Synergy Score growth inhibition (OCI-Ly3; [1]): A1 (A1=0.0001 to <1)
- Synergy Score inhibition (OCI-Ly3; [1]): A1 (A1=0.0001 to <1)
- CI50 growth inhibition (OCI-Ly3; [2]): S (S=0.01 to <0.5)
- Synergy Score growth inhibition (OCI-Ly3; [2]): A1 (A1=0.0001 to <1)
- Synergy Score inhibition (OCI-Ly3; [2]): A1 (A1=0.0001 to <1)
- CI50 growth inhibition (HBL-1; [3]): S (S=0.01 to <0.5)
- Synergy Score growth inhibition (HBL-1; [3]): A2 (A2=1 to <3)
- Synergy Score inhibition (HBL-1; [3]): A1 (A1=0.0001 to <1)
- CI50 growth inhibition (HBL-1; [4]): S (S=0.01 to <0.5)
- Synergy Score growth inhibition (HBL-1; [4]): A2 (A2=1 to <3)
- Synergy Score inhibition (HBL-1; [4]): A1 (A1=0.0001 to <1)
- CI50 growth inhibition (U-2932; [3]): T (T=0.5 to <0.7)
- CI50 inhibition (U-2932; [3]): U (U=0.7 to <1)
- Synergy Score growth inhibition (U-2932; [3]): A2 (A2=1 to <3)
- Synergy Score inhibition (U-2932; [3]): A2 (A2=1 to <3)
- CI50 growth inhibition (U-2932; [4]): U (U=0.7 to <1)
- CI50 inhibition (U-2932; [4]): U (U=0.7 to <1)
- Synergy Score growth inhibition (U-2932; [4]): A2 (A2=1 to <3)
- Synergy Score inhibition (U-2932; [4]): A2 (A2=1 to <3)
- CI50 growth inhibition (TMD8; [3]): S (S=0.01 to <0.5)
- CI50 inhibition (TMD8; [3]): S (S=0.01 to <0.5)
- Synergy Score growth inhibition (TMD8; [3]): A3 (A3=>3)
- Synergy Score inhibition (TMD8; [3]): A3 (A3=>3)
- CI50 growth inhibition (TMD8; [4]): U (U=0.7 to <1)
- CI50 inhibition (TMD8; [4]): T (T=0.5 to <0.7)
- Synergy Score growth inhibition (TMD8; [4]): A3 (A3=>3)
- Synergy Score inhibition (TMD8; [4]): A3 (A3=>3)

SMILES: CC(=O)c1c(C)c2cnc(Nc3ccc(N4CCNCC4)cn3)nc2n(C2CCCC2)c1=O [PD-0332991]
- CI50 growth inhibition (OCI-Ly3; [1]): S (S=0.01 to <0.5)
- CI50 inhibition (OCI-Ly3; [1]): S (S=0.01 to <0.5)
- Synergy Score growth inhibition (OCI-Ly3; [1]): A3 (A3=>3)
- Synergy Score inhibition (OCI-Ly3; [1]): A2 (A2=1 to <3)
- CI50 growth inhibition (OCI-Ly3; [2]): T (T=0.5 to <0.7)
- CI50 inhibition (OCI-Ly3; [2]): U (U=0.7 to <1)
- Synergy Score growth inhibition (OCI-Ly3; [2]): A2 (A2=1 to <3)
- Synergy Score inhibition (OCI-Ly3; [2]): A1 (A1=0.0001 to <1)
- Synergy Score growth inhibition (HBL-1; [3]): A1 (A1=0.0001 to <1)
- Synergy Score inhibition (HBL-1; [3]): A1 (A1=0.0001 to <1)
- Synergy Score growth inhibition (HBL-1; [4]): A1 (A1=0.0001 to <1)
- Synergy Score inhibition (HBL-1; [4]): A1 (A1=0.0001 to <1)
- Synergy Score growth inhibition (U-2932; [3]): A1 (A1=0.0001 to <1)
- Synergy Score inhibition (U-2932; [3]): A1 (A1=0.0001 to <1)
- Synergy Score growth inhibition (U-2932; [4]): A1 (A1=0.0001 to <1)
- Synergy Score inhibition (U-2932; [4]): A1 (A1=0.0001 to <1)
- CI50 growth inhibition (TMD8; [3]): S (S=0.01 to <0.5)
- CI50 inhibition (TMD8; [3]): S (S=0.01 to <0.5)
- Synergy Score growth inhibition (TMD8; [3]): A3 (A3=>3)
- Synergy Score inhibition (TMD8; [3]): A2 (A2=1 to <3)
- CI50 growth inhibition (TMD8; [4]): S (S=0.01 to <0.5)
- CI50 inhibition (TMD8; [4]): S (S=0.01 to <0.5)
- Synergy Score growth inhibition (TMD8; [4]): A3 (A3=>3)
- Synergy Score inhibition (TMD8; [4]): A2 (A2=1 to <3)

SMILES: O=C(Nc1ccc2[nH]nc(-c3ccncc3)c2c1)[C@@H]1CCN(CC(=O)N2CCN(c3ccc(-c4ncccn4)cc3)CC2)C1 [SCH772984, (R)-1-(2-oxo-2-(4-(4-(pyrimidin-2-yl)phenyl)piperazin-1-yl)ethyl)-N-(3-(pyridin-4-yl)-1H-indazol-5-yl)pyrrolidine-3-carboxamide]
- CI50 growth inhibition (WSU-NHL): U (U=0.7 to <1)
- CI50 inhibition (WSU-NHL): U (U=0.7 to <1)
- Synergy Score growth inhibition (WSU-NHL): A1 (A1=0.0001 to <1)
- Synergy Score inhibition (WSU-NHL): A1 (A1=0.0001 to <1)
- CI50 growth inhibition (KARPAS-422): T (T=0.5 to <0.7)
- CI50 inhibition (KARPAS-422): W (W=≥1)
- Synergy Score growth inhibition (KARPAS-422): A1 (A1=0.0001 to <1)
- Synergy Score inhibition (KARPAS-422): A1 (A1=0.0001 to <1)
- Synergy Score growth inhibition (RL): A1 (A1=0.0001 to <1)
- Synergy Score inhibition (RL): A1 (A1=0.0001 to <1)
- Synergy Score growth inhibition (OMP-2): A1 (A1=0.0001 to <1)
- Synergy Score inhibition (OMP-2): A1 (A1=0.0001 to <1)
- Synergy Score growth inhibition (KARPAS-299): A1 (A1=0.0001 to <1)
- Synergy Score inhibition (KARPAS-299): A1 (A1=0.0001 to <1)
- CI50 growth inhibition (NCI-H929): W (W=≥1)
- CI50 inhibition (NCI-H929): W (W=≥1)
- Synergy Score growth inhibition (NCI-H929): A1 (A1=0.0001 to <1)
- Synergy Score inhibition (NCI-H929): A1 (A1=0.0001 to <1)
- CI50 growth inhibition (SU-DHL-4-epst): W (W=≥1)
- Synergy Score growth inhibition (SU-DHL-4-epst): A1 (A1=0.0001 to <1)
- Synergy Score inhibition (SU-DHL-4-epst): A1 (A1=0.0001 to <1)
- CI50 growth inhibition (Mino): W (W=≥1)
- Synergy Score growth inhibition (Mino): A1 (A1=0.0001 to <1)
- Synergy Score inhibition (Mino): A1 (A1=0.0001 to <1)
- Synergy Score growth inhibition (OCI-Ly7): A1 (A1=0.0001 to <1)
- Synergy Score inhibition (OCI-Ly7): A1 (A1=0.0001 to <1)
- CI50 growth inhibition (SU-DHL-10-epst): T (T=0.5 to <0.7)
- CI50 inhibition (SU-DHL-10-epst): W (W=≥1)
- Synergy Score growth inhibition (SU-DHL-10-epst): A2 (A2=1 to <3)
- Synergy Score inhibition (SU-DHL-10-epst): A2 (A2=1 to <3)
- Synergy Score growth inhibition (GRANTA-519): A1 (A1=0.0001 to <1)
- Synergy Score inhibition (GRANTA-519): A1 (A1=0.0001 to <1)
- CI50 growth inhibition (OCI-Ly3; [5]): W (W=≥1)
- Synergy Score growth inhibition (OCI-Ly3; [5]): A1 (A1=0.0001 to <1)
- Synergy Score inhibition (OCI-Ly3; [5]): A1 (A1=0.0001 to <1)
- CI50 growth inhibition (HBL-1; [6]): T (T=0.5 to <0.7)
- Synergy Score growth inhibition (HBL-1; [6]): A1 (A1=0.0001 to <1)
- Synergy Score inhibition (HBL-1; [6]): A1 (A1=0.0001 to <1)
- Synergy Score growth inhibition (RPMI-8226): A1 (A1=0.0001 to <1)
- Synergy Score inhibition (RPMI-8226): A1 (A1=0.0001 to <1)
- CI50 growth inhibition (U-2932; [6]): W (W=≥1)
- Synergy Score growth inhibition (U-2932; [6]): A1 (A1=0.0001 to <1)
- Synergy Score inhibition (U-2932; [6]): A1 (A1=0.0001 to <1)
- CI50 growth inhibition (HH): T (T=0.5 to <0.7)
- CI50 inhibition (HH): S (S=0.01 to <0.5)
- Synergy Score growth inhibition (HH): A1 (A1=0.0001 to <1)
- Synergy Score inhibition (HH): A1 (A1=0.0001 to <1)
- CI50 growth inhibition (DOHH-2): W (W=≥1)
- CI50 inhibition (DOHH-2): W (W=≥1)
- Synergy Score growth inhibition (DOHH-2): A1 (A1=0.0001 to <1)
- Synergy Score inhibition (DOHH-2): A1 (A1=0.0001 to <1)
- CI50 growth inhibition (TMD8; [6]): T (T=0.5 to <0.7)
- CI50 inhibition (TMD8; [6]): U (U=0.7 to <1)
- Synergy Score growth inhibition (TMD8; [6]): A1 (A1=0.0001 to <1)
- Synergy Score inhibition (TMD8; [6]): A1 (A1=0.0001 to <1)
- CI50 growth inhibition (Farage; Farage, 72 h): T (T=0.5 to <0.7)
- CI50 inhibition (Farage; Farage, 72 h): W (W=≥1)
- Synergy Score growth inhibition (Farage; Farage, 72 h): A1 (A1=0.0001 to <1)
- Synergy Score inhibition (Farage; Farage, 72 h): A1 (A1=0.0001 to <1)
- CI50 growth inhibition (Jeko-1): W (W=≥1)
- Synergy Score growth inhibition (Jeko-1): A1 (A1=0.0001 to <1)
- Synergy Score inhibition (Jeko-1): A1 (A1=0.0001 to <1)
